According to ChEMBL document CHEMBL4371004, “A-C Estrogens as Potent and Selective Estrogen Receptor-Beta Agonists (SERBAs) to Enhance Memory Consolidation under Low-Estrogen Conditions” (J Med Chem, 2018):
pEC50, pIC50: −log10 of the molar value. Calls of active or inactive are those of the source. No cut-off for these calls is given here.

Experiments:
[1] = target: T1, Androgen receptor (Homo sapiens) (UniProt P10275); assay: Agonist activity at GAL4 DNA binding domain fused androgen receptor ligand binding domain (unknown origin) at 0.25 to 25 uM by FRET-based assay
T1 sequence (whole entry): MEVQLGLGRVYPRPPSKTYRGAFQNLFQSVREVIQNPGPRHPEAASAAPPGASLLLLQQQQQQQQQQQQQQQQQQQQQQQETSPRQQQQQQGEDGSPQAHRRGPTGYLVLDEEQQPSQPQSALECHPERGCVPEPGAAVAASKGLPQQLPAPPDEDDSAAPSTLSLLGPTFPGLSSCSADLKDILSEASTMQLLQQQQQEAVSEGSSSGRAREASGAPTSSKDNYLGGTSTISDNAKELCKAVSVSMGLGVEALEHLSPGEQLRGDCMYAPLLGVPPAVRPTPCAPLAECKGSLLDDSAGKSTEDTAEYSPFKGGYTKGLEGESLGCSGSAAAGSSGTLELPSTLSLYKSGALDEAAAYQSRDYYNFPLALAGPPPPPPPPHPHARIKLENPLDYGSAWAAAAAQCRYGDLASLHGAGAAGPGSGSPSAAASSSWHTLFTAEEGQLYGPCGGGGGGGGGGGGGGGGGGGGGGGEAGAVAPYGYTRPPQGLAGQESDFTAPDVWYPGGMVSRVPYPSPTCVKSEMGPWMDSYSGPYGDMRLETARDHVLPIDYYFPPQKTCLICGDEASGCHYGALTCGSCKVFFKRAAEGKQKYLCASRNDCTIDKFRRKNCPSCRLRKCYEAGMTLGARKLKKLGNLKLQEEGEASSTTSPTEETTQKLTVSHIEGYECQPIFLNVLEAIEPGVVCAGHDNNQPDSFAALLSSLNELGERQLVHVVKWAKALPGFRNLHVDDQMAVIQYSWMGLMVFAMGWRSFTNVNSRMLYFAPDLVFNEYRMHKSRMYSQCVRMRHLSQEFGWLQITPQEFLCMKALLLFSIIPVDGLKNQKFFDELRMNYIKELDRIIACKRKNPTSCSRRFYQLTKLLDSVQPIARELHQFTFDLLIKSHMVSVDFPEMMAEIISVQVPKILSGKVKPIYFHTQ

[2] = target: T2, Mineralocorticoid receptor (Homo sapiens) (UniProt P08235); assay: Agonist activity at GAL4 DNA binding domain fused mineralocorticoid receptor ligand binding domain (unknown origin) at 0.25 to 25 uM by FRET-based assay
T2 sequence (whole entry): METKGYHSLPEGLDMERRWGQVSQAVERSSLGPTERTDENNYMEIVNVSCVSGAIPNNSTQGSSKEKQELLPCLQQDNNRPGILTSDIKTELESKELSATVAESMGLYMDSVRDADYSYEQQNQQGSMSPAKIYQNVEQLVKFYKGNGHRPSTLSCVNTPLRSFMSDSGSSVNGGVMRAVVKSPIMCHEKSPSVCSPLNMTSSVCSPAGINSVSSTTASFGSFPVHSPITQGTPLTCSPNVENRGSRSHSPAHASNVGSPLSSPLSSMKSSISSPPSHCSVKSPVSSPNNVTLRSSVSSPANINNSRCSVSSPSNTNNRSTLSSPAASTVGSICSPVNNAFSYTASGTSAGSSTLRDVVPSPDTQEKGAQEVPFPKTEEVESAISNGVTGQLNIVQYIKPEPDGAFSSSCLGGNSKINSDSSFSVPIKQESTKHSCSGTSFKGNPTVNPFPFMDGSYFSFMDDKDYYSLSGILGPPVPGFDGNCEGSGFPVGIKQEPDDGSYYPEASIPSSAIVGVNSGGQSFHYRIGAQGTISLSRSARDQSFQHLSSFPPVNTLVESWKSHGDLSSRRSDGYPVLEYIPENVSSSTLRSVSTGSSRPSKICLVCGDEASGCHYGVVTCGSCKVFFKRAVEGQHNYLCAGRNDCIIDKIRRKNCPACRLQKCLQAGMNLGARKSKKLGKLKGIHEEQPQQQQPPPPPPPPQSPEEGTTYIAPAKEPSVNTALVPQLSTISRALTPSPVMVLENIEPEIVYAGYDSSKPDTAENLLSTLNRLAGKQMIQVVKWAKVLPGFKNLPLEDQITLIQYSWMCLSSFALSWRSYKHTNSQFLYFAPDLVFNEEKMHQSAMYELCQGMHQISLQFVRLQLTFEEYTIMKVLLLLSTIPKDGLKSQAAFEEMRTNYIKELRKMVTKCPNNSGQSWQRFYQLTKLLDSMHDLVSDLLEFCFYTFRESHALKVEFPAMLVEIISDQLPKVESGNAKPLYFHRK

Mus musculus [3] = assay: Memory enhancement effect in C57BL/6 mouse assessed as time spent with moved object at 10 pg administered as dorsal hippocampal infusion by novel object recognition test; format: functional
Mus musculus [4] = assay: Memory enhancement effect in C57BL/6 mouse assessed as time spent with novel object at 10 pg administered as dorsal hippocampal infusion by novel object recognition test; format: functional
Mus musculus [5] = assay: Memory enhancement effect in C57BL/6 mouse assessed as time spent with novel object at 100 pg administered as dorsal hippocampal infusion by novel object recognition test; format: functional
Mus musculus [6] = assay: Memory enhancement effect in C57BL/6 mouse assessed as time spent with novel object at 1 ng administered as dorsal hippocampal infusion by novel object recognition test; format: functional
Mus musculus [7] = assay: Memory enhancement effect in C57BL/6 mouse assessed as time spent with novel object at 5 mg/kg, ip by novel object recognition test; format: functional
Mus musculus [8] = assay: Memory enhancement effect in C57BL/6 mouse assessed as time spent with moved object at 5 mg/kg, po administered via gavage by object recognition test; format: functional
Estrogen receptor [9] = target: T3, Estrogen receptor (Homo sapiens, UniProt P03372)
T3 sequence (P03372 whole entry): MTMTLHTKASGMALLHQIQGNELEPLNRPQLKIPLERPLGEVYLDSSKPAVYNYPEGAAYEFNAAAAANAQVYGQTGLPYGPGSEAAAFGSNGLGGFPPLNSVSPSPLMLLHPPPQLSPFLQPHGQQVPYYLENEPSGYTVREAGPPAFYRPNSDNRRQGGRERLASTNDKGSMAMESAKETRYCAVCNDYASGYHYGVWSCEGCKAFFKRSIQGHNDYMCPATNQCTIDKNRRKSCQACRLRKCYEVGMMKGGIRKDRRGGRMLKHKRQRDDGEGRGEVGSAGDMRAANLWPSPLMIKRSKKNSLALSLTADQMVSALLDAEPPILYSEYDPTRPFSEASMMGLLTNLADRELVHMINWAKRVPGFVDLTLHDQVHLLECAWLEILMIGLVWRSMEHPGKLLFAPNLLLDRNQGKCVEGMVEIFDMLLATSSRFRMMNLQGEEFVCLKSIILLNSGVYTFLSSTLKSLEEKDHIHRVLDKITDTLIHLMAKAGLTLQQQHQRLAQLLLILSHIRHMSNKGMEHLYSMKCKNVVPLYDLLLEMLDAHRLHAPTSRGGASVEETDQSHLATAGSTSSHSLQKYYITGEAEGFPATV

Estrogen receptor [10] = target: T3, Estrogen receptor; remark: listed apart in the source
Description: Agonist activity at estrogen receptor alpha (unknown origin) after 22 hrs by cell-based luciferase reporter gene assay

OC[C@H]1CC[C@H](c2ccc(O)cc2)CC1
Activity [1]: inactive
Activity [2]: inactive
Time (Mus musculus [3]): 1.19 s
Time (Mus musculus [4]): 0.88 s
Time (Mus musculus [5]): 3.16 s
Time (Mus musculus [6]): 1.08 s
Time (Mus musculus [7]): 1.65 s
Time (Mus musculus [8]): 5.06 s
pIC50 (Estrogen receptor [9]): 5.53
pEC50 (Estrogen receptor [10]): 4.69
